In patent US8003324B2, “Modulation of sodium channels by nicotinamide adenine dinucleotide” (U.S. Department of Veterans Affairs, priority 2007, dated 2011):
“And” between values parts separate entries of the source, which are not always exact repeats. Identical values can stand only once. “Also recorded” adds a separate entry of the source.

Columns and labels:
[1] = system: human SCN5A fused at the C-terminus to GFP (SCN5A-GFP fusion); test: Na+ channel tracking (confocal microscopy of SCN5A-GFP fusion in HEK cells); format: cell-based
Description: An SCN5A constructed fused at the C-Terminus to GFP (SCN5A-GFP fusion) was stably transfected in HEK cells and grown on glass bottom 14 mm microwell dishes (MatTek Corporation, Ashland, Mass., USA). A Nikon (Melville, N.Y.) Diaphot 200 inverted microscope with a fluorescent lamp was used to identify cells expressing GFP. Cells expressing GFP were transiently co-transfected with MT GPD1-L or incubated overnight with NADH. Fixation was performed by washing the coverslip three times with DPBS (Dulbecco's Phosphate Buffered Saline 1× of GIBCO) and exposing them to 4% paraformaldehyde in PBS at pH 7.4. […] GFP fluorescence was observed using a 507 nm narrow bandpass filter and a 60× oil 1.4 NA objective. Quantification was done using ImageJ software.
For these experiments, a construct of human SCN5A fused at the C-terminus to GFP (SCN5A-GFP fusion) was stably transfected in HEK cells and grown on the glass bottom of 14-mm microwell dishes (MatTek Corporation, Ashland, Mass., USA). […] For imaging Na^+ channels, GFP was excited at 488 nm with an argon ion 30 mW water-cooled laser, and GFP fluorescence was observed using a 507 nm narrow bandpass filter and a 60× oil 1.4 NA objective. Quantification was done using ImageJ software.

HEK 293 cell (SCN5A) = format: cell-based; details: human, 24 h
Description: Human embryonic kidney (HEK) cell line was used for all experiments. A HEK cell line stably expressing a SCN5A-IRES-GFP construct as described in our previous study (Arnold et al., Hearth Rhythm 4:46-53 (2007)) was maintained by antibiotic selection using 0.2 mg/mL Geneticin (G-8168, Sigma-Aldrich). Cells were cultured in Dulbecco's modified Eagle's medium (DMEM; ATCC, Manassas, Va.) with 10% fetal calf serum (ATCC) at 37° C. in 60 mm×15 mm cell culture dishes (Corning Incorporated, Corning, N.Y.) until 70-80% confluence. After reaching confluence, cells were exposed to NADH (Sigma, St. Louis, Mo.) or NAD^+ (Sigma) in culture medium for a total of 12-14 h in triplicate. Experiments were repeated three times. After dissociation with 0.125% trypsin-EDTA, 40 μL of 0.4% Trypan-blue (Sigma, St. Louis, Mo.) was added to each well, and a Trypan-blue exclusion viability assay was performed.
As previously described, we maintained a human embryonic kidney (HEK) cell line that stably expresses the human cardiac Na^+ channel (SCN5A) with antibiotic selection using 0.2 mg/mL geneticin (G-8168, Sigma-Aldrich, St. Louis, Mo.) (23). Expression of SCN5A was linked to green fluorescent protein (GFP) expression by an internal ribosomal entry site (SCN5A-IRES-GFP). Cells were cultured in Dulbecco's modified Eagle's medium (DMEM; ATCC, Manassas, Va.) with 10% fetal calf serum (ATCC) at 37° C. in 60 mm×15 mm cell culture dishes (Corning Incorporated, Corning, N.Y.) until 70-80% confluency. Then, cells were exposed to NADH or NAD^+ (both from Sigma-Aldrich) in culture medium for a total of 24 h. After dissociation with 0.125% trypsin-ethylenediaminetetraacetic acid (EDTA), 40 μL of 0.4% Trypan-blue (Sigma) was added to each well of a 6-well plate, and a Trypan-blue exclusion viability assay was performed. SCN5A cells were tolerant of a wide range of NADH or NAD^+ concentrations from 150 to 300 μM (data not shown). […] All NAD(H) containing solutions were made fresh daily.

[2] = molecular target: T1, human cardiac Na^+ channel (SCN5A) (Homo sapiens, UniProt Q14524); test: Whole-cell patch clamp Na+ current in HEK cells stably expressing SCN5A; format: cell-based; details: for effect on peak Na+ current (in words): versus SCN5A cells
T1 construct: expressed in transfected cells
Description: HEK cells stably transfected with two different Na^+ channel constructs were used, SCN5A-IRES-GFP and SCN5A-GFP fusion constructs. Cloning and establishment of the cell lines has been delineated previously (11). The HEK 293 cell line stably expressing a SCN5A-IRES-GFP construct was maintained by antibiotic selection using Geneticin (G-8168, Sigma-Aldrich) at a concentration of 0.2 mg/mL was used for patch clamp study. GFP was used as a marker to identify cells expressing the cardiac Na^+ channel. The cells were cultured in 6 well plates with Dulbecco's Modified Eagle's medium (DMEM), 10% fetal bovine serum and 1% pen-strep. Cells were stored in a 5% CO2 incubator at 37° C. for 1-2 days. GPD1-L (the A280V mutant or wild-type) was transiently co-transfected into HEK 293 cells. GPD1-L vectors have been described in London et al.
The effects of external NADH or NAD^+ on sodium current were determined by incubating HEK 293 cells overnight (12-14 h) with NADH/NAD^+ (300 μM) added to the media. The effects of internal NADH or NAD^+ (100 μM) on sodium current were tested by adding the compounds to the pipette solution.
Cells expressing GFP were tested with the whole cell patch-clamp technique in voltage-clamp mode to measure Na^+ current levels. For patch-clamping, HEK cells were plated onto plastic coverslips 2-3 h before the recordings. Glass pipettes were pulled on a Sutter Model P-97 horizontal puller to a resistance of 1-2 MΩ. The glass pipettes were filled with a pipette solution containing (in mmol/L): CsCl 80, Cesium Aspartate 80, EGTA 11, MgCl2 1, CaCl2 1, HEPES 10, Na2ATP 5 and pH 7.4 with CsOH. The bath solution consisted of (in mmol/L): NaCl 130, CsCl 5, CaCl2 2, MgCl2 1.2, HEPES 10 and Glucose 5 (titrated to pH 7.4 with CsOH). Once a seal was established, a small amount of suction was applied to obtain the whole cell configuration. A stepped voltage protocol from −100 to +60 mV from a holding potential of −100 mV was applied to establish the presence of voltage-gated Na^+ channels. Currents obtained during steps to −10 mV were used for comparison in determining the relative reduction in sodium current. Cells were tested at 25° C. In all recordings, 80% of the series resistance was compensated, yielding a maximum voltage error of ˜1 mV. Data were sampled at 10 kHz and later filtered at 5 kHz for analysis. Currents were recorded and analyzed with an Axopatch 200B amplifier, Axon Digidata 1230A A/D converter and pClamp software (Molecular Devices Corporation, Sunnyvale, Calif.).
Using HEK 293 cells stably expressing the SCN5A-IRES-GFP construct, we measured the effect of treatments on the Na^+ current. Cells were cultured in 6-well plates in a […] incubator at 37° C. WT or MT GPD1-L was transiently transfected into HEK 293 cells as described previously in London et al. Other treatments included extracellular NADH or NAD^+ (300 μM) for […] or NADH or NAD^+ (100 μM) in the patch pipette solution. Apocynin (100 μM, Sigma) was added to cells 4-6 h prior to treatment with NADH and continuing for the entire extracellular NADH incubation. Na^+ current levels were measured from GFP-expressing cells using the whole-cell patch clamp technique in voltage-clamp mode at room temperature. HEK cells were dissociated by trypsin-EDTA, and replated onto plastic coverslips 2-3 h before the recordings. Glass pipettes were pulled on a Sutter Model P-97 horizontal puller to a resistance of 1-2 MΩ. The glass pipettes were filled with a pipette solution containing (in mM): CsCl 80, cesium aspartate 80, EGTA 11, MgCl2 1, CaCl2 1, HEPES 10, and Na2ATP 5 (adjusted to pH 7.4 with CsOH). The bath solution consisted of (in mM): NaCl 130, CsCl 5, CaCl2 2, MgCl2 1.2, HEPES 10 and Glucose 5 (adjusted to pH 7.4 with CsOH). Once a seal was established, a small amount of suction was applied to obtain the whole-cell configuration. […]

SCN5A^+/− mouse heart = test: Ventricular arrhythmogenesis in Langendorff-perfused SCN5A+/- mouse heart (MAP recording, PES)
Description: Hearts from mice genetically modified to ablate one allele of SCN5A were isolated and Langendorff-perfused (3 ml/min at 37° C.) with Krebs-Henseleit solution (in mM: 119 NaCl, 25 NaHCO3, 4 KCl, 1.2 KH2PO4, 1 MgCl2, 1.8 CaCl2, 10 glucose and 2 sodium pyruvate) and allowed to beat intrinsically for 10 min. Monophasic action potentials (MAPs) were recorded using a MAP electrode (Harvard Apparatus, UK) placed on left ventricular epicardial surface. MAP signals were amplified, band-pass filtered (0.5 Hz to 1 kHz: Neurolog NL900D), digitized (1401, Cambridge Electronic Design, Cambridge, UK) and acquired using Spike 2.5 (Cambridge Electronic Design) at a 5 KHz sampling rate. A custom made, paired-platinum electrode was placed on right ventricle and used to deliver 2 ms ([…], twice the threshold) stimuli (GRASS S48 stimulator) to pace the heart at different intervals. The standard pacing protocol consisted of 8 Hz stimuli (basic cycle length, BCL 125 ms) and was delivered for 20 min to measure MAPs. This was followed by programmed electrically stimulation (PES) consisting of trains of eight paced stimuli at 125 ms BCL (S1) followed by an extra stimulus (S2). […] PES was repeated three times before and three times after the drug application in each heart. NAD^+ was perfused for 20 min to assess its anti-arrhythmic effect. Selected recordings were imported to Microsoft Excel for further statistical analysis. Average APD90 (action potential duration) was calculated by averaging 240 MAPs recorded at three different locations on each heart (80 MAPs at each location). These studies were approved by the Institutional Review Board.

[3] = 100 μM intracellular (pipette solution), at 10 min
[4] = 300 μM extracellular, overnight incubation

T1 sequence (Q14524 whole entry): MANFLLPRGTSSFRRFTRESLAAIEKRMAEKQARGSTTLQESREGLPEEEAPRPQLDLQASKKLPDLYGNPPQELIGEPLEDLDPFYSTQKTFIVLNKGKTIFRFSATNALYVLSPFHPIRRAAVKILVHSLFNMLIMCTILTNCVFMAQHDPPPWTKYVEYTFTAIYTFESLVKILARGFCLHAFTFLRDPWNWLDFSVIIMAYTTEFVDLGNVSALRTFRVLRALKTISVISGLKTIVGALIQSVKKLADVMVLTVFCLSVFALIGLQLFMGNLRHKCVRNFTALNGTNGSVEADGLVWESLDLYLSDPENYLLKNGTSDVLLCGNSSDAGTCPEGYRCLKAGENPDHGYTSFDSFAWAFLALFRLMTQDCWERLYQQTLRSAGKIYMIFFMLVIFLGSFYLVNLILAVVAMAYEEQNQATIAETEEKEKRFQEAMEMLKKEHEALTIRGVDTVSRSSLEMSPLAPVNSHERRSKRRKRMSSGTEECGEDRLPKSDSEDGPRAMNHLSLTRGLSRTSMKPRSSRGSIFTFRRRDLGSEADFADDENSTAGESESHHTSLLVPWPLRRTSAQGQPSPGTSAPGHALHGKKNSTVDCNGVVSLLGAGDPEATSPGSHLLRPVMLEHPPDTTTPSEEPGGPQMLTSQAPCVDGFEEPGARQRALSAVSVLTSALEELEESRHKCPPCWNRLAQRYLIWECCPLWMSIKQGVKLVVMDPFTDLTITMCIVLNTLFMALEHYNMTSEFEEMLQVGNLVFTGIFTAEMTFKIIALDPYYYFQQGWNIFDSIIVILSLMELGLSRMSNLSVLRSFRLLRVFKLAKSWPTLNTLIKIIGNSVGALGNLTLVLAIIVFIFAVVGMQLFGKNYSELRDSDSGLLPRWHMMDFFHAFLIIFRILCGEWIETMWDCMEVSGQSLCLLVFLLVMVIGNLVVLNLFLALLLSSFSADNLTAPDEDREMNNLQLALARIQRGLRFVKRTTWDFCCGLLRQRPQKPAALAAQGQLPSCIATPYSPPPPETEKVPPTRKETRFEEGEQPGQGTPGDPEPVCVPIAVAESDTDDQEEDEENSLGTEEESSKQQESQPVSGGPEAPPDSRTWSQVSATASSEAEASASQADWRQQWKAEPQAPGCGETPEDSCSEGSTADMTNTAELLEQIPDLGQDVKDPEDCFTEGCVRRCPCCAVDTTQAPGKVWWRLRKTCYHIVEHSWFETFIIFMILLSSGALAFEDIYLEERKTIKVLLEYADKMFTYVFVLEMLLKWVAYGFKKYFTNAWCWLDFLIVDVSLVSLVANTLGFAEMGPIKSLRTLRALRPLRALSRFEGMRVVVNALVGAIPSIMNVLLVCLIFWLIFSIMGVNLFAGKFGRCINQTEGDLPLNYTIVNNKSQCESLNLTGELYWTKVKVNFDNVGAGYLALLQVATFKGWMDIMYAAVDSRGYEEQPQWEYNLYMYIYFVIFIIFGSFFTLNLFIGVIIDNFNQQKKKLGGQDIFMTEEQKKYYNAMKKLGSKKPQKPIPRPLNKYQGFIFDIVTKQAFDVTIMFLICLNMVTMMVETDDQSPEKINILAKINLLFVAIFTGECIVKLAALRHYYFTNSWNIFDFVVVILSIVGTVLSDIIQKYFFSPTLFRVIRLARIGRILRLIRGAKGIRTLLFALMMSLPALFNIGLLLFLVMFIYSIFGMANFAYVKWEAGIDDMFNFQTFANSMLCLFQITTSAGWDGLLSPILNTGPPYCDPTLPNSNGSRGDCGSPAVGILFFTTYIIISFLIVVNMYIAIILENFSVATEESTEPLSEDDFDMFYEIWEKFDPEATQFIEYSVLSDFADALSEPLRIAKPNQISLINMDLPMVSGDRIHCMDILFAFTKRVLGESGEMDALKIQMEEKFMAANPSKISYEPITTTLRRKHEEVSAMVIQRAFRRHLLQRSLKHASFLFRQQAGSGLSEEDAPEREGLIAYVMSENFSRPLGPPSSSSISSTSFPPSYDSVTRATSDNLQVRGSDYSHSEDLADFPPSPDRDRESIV

SMILES | reduction in membrane-associated, GFP-tagged Na+ channels ([1]; overnight incubation with NADH, fluorescent microscopy) | tolerated concentration range (cell viability) (HEK 293 cell (SCN5A)) | tolerated concentration range (dose-dependent cell viability) (HEK 293 cell (SCN5A)) | decrease in Na+ current (peak current) [2, 3] | decrease in whole cell peak conductance ([2]; 300 μM extracellular, overnight) | decrease in peak Na+ current [2, 4] | effect on Na+ channel protein (GFP fluorescence, in words) ([1]; 300 μM overnight, versus control SCN5A-GFP cells) | hearts in which PES failed to induce VT (SCN5A^+/− mouse heart; SCN5A+/- hearts after 20 min perfusion with 100 μM, VT in 6 out of 6 before) | reversibility: hearts with PES-induced VTs after removal (SCN5A^+/− mouse heart; SCN5A+/- hearts, NAD+ removed) | MAP duration or morphology (SCN5A^+/− mouse heart; perfusion for 20 min with 100 μM) | APD90 (SCN5A^+/− mouse heart; six SCN5A+/- hearts, 20 min perfusion with 100 μM, BCL 125 ms) | effect on Na+ current density (in words) ([2]; 100 μM in internal (pipette) solution, versus SCN5A) | increase in Na+ current (peak current) [2, 3] | effect on peak Na+ current (in words) [2, 4] | effect on peak Na+ current (in words) ([2]; 300 μM extracellular, overnight incubation, listed as NAD+) | increase in whole cell peak conductance ([2]; 300 μM extracellular, overnight, n=9) | effect on the Na+ current reduction caused by MT GPD1-L (A280V) ([2]; SCN5A cells co-transfected with MT GPD1-L, external NAD+ 300 μM) | shift of activation curve ([2]; WT SCN5A cells, versus SCN5A cell) | shift of inactivation curve ([2]; versus SCN5A cell) | effect on the NADH-induced reduction of Na+ current ([2]; apocynin 100 μM added 4-6 h before and during extracellular NADH incubation)
NC(=O)C1=CN([C@@H]2O[C@H](COP(=O)(O)OP(=O)(O)OC[C@H]3O[C@@H](n4cnc5c(N)ncnc54)[C@H](O)[C@@H]3O)[C@@H](O)[C@H]2O)C=CC1 [NADH, nicotinamide adenine dinucleotide] | 6.1 fold | 150 to 300 µM | 150 to 300 µmol/L | 51% and 55.5% | 71.4% | 65.7±6.6% and 74.9% |  |  |  |  |  |  |  |  |  |  |  |  |  | 
NC(=O)c1ccc[n+]([C@H]2O[C@@H](COP(=O)(O)OP(=O)(O)OC[C@@H]3O[C@H](n4cnc5c(N)ncnc54)[C@H](O)C3O)C(O)[C@H]2O)c1 (stereo partly drawn) [NAD^+, nicotinamide adenine dinucleotide] |  | 150 to 300 µM |  |  |  |  | increased GFP fluorescence; also recorded: increases Na^+ channel protein | 5 out of 6 | 4 out of 6 and reversible | no significant change | 27.9 ± 1.9 ms | significantly higher | 77% and 66.6% | increase in peak current; also recorded: increased sodium current | largely restored peak current | 30.3% | prevented the loss of peak current; also recorded: increased Na^+ current at all activation potential; also recorded: reverses the decrease in peak current; also recorded: largely prevented; also recorded: prevent the reduction in Na^+ current | shift more positive | more positive | 
COc1cc(C(C)=O)ccc1O [apocynin, reference compound] |  |  |  |  |  |  |  |  |  |  |  |  |  |  |  |  |  |  |  | abolished the effect of NADH on Na^+ current; also recorded: inhibited the effect of NADH on Na^+ currents
